We go through 16 compounds from patent US9040545B2, “Heterocyclyl pyrazolopyrimidine analogues as selective JAK inhibitors” (Cellzome Limited, priority 2010, dated 2015).

In one experiment the target is T1, JAK3 (Homo sapiens, UniProt P52333).
T1 construct: endogenous in cells; host or cells: mixed Molt4/Ramos lysate (1:2)
T1 sequence (P52333 1-1124): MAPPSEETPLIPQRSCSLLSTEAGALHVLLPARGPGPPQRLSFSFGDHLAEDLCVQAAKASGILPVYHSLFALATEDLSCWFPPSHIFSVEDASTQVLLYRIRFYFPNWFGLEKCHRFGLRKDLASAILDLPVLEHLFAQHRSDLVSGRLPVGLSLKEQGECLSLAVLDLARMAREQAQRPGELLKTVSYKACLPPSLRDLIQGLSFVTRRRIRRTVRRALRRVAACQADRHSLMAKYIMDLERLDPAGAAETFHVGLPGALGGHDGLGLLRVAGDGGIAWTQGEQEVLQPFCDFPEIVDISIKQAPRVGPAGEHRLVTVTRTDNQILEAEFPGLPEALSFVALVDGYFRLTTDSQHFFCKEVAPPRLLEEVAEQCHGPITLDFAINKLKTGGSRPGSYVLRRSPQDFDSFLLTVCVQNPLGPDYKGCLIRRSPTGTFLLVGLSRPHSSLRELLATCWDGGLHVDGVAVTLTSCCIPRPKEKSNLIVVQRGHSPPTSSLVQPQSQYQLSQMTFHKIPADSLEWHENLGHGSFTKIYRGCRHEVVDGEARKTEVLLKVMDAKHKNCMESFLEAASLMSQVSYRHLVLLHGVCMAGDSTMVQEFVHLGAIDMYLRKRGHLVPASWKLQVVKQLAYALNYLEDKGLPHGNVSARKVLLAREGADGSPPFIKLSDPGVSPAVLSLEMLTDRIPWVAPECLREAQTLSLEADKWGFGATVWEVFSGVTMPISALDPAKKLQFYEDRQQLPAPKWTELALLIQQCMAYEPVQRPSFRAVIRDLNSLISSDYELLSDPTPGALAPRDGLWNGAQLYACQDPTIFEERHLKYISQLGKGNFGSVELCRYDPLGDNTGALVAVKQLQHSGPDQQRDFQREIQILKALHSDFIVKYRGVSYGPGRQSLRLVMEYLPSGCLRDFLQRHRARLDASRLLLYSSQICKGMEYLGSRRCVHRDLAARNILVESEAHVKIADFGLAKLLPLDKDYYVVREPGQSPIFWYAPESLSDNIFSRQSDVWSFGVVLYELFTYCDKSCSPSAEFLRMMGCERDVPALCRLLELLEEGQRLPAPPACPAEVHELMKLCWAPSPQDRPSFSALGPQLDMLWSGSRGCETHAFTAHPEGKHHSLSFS
In words: Kinobeads assay, JAK3. Format: binding. The settings on record: mixed Molt4/Ramos lysate, read-out: Inhibition values (IC50) JAK3. As to the method: (§1) The compounds of the present invention as described in the previous examples were tested in a Kinobeads™ assay as described for ZAP-70 (WO-A 2007/137867). Briefly, test compounds (at various concentrations) and the affinity matrix with the immobilized aminopyrido-pyrimidine ligand 24 were added to cell lysate aliquots and allowed to bind to the proteins in the lysate sample. After the incubation time the beads with captured proteins were separated from the lysate. Bound proteins were then eluted and the presence of JAK2 and JAK3 was detected and quantified using specific antibodies in a dot blot procedure and the Odyssey infrared detection system. Dose response curves for individual kinases were generated and IC50 values calculated. Kinobeads™ assays for ZAP-70 (WO-A 2007/137867) and for kinase selectivity profiling (WO-A 2006/134056) have been previously described.
(§2) The affinity matrix was washed two times with 15 mL of 1×DP buffer containing 0.2% NP40 (IGEPAL® CA-630, Sigma, #I3021) and then resuspended in 1×DP buffer containing 0.2% NP40 (3% beads slurry).
(§3) 5×DP buffer 250 mM Tris-HCl pH 7.4, 25% Glycerol, 7.5 mM MgCl2, 750 mM NaCl, 5 mM Na3VO4; filter the 5×DP buffer through a 0.22 μm filter and store in aliquots at −80° C. The 5×DP buffer is diluted with H2O to 1×DP buffer containing 1 mM DTT and 25 mM NaF.
(§4) Stock solutions of test compounds were prepared in DMSO. In a 96 well plate 30 μL solution of diluted test compounds at 5 mM in DMSO were prepared. Starting with this solution a 1:3 dilution series (9 steps) was prepared. For control experiments (no test compound) a buffer containing 2% DMSO was used.
(§5) Molt4 cells (ATCC catalogue number CRL-1582) and Ramos cells (ATCC catalogue number CRL-1596) were grown in 1 L Spinner flasks (Integra Biosciences, #182101) in suspension in RPMI 1640 medium (Invitrogen, #21875-034) supplemented with 10% Fetal Bovine Serum (Invitrogen) at a density between 0.15×106 and 1.2×10^6 cells/mL. Cells were harvested by centrifugation, washed once with 1×PBS buffer (Invitrogen, #14190-094) and cell pellets were frozen in liquid nitrogen and subsequently stored at −80° C. Cells were homogenized in a Potter S homogenizer in lysis buffer: 50 mM Tris-HCl, 0.8% NP40, 5% glycerol, 150 mM NaCl, 1.5 mM MgCl2, 25 mM NaF, 1 mM sodium vanadate, 1 mM DTT, pH 7.5. One complete EDTA-free tablet (protease inhibitor cocktail, Roche Diagnostics, 1873580) per 25 mL buffer was added. The material was dounced 10 times using a mechanized POTTER S, transferred to 50 mL falcon tubes, incubated for 30 minutes on ice and spun down for 10 minutes at 20,000 g at 4° C. (10,000 rpm in Sorvall SLA600, precooled). The supernatant was transferred to an ultracentrifuge (UZ)-polycarbonate tube (Beckmann, 355654) and spun for 1 hour at 100,000 g at 4° C. (33.500 rpm in Ti50.2, precooled). The supernatant was transferred again to a fresh 50 mL falcon tube, the protein concentration was determined by a Bradford assay (BioRad) and samples containing 50 mg of protein per aliquot were prepared. The samples were immediately used for experiments or frozen in liquid nitrogen and stored frozen at −80° C.
(§6) Cell lysate (approximately 50 mg protein per plate) was thawed in a water bath at room temperature and then stored on ice. To the thawed cell lysate 1×DP 0.8% NP40 buffer containing protease inhibitors (1 tablet for 25 mL buffer; EDTA-free protease inhibitor cocktail; Roche Diagnostics 1873580) was added in order to reach a final protein concentration of 10 mg/mL total protein. The diluted cell lysate was stored on ice. Mixed Molt4/Ramos lysate was prepared by combining one volume of Molt4 lysate and two volumes of Ramos lysate (ratio 1:2).
(§7) To a 96 well filter plate (Multiscreen HTS, BV Filter Plates, Millipore #MSBVN1250) were added per well: 100 μL affinity matrix (3% beads slurry), 3 μL of compound solution, and 50 μL of diluted lysate. […]

The next experiment addresses T2, JAK2 (Homo sapiens, UniProt O60674).
T2 construct: endogenous in cells; host or cells: mixed Molt4/Ramos lysate (1:2)
The experiment in a line: Kinobeads assay, JAK2. As to conditions: mixed Molt4/Ramos lysate, read-out: Inhibition values (IC50) JAK2. Format: binding. As to the method:
as §1, §2, §3, §4, §5, §6, §7

T2 sequence (O60674 whole entry): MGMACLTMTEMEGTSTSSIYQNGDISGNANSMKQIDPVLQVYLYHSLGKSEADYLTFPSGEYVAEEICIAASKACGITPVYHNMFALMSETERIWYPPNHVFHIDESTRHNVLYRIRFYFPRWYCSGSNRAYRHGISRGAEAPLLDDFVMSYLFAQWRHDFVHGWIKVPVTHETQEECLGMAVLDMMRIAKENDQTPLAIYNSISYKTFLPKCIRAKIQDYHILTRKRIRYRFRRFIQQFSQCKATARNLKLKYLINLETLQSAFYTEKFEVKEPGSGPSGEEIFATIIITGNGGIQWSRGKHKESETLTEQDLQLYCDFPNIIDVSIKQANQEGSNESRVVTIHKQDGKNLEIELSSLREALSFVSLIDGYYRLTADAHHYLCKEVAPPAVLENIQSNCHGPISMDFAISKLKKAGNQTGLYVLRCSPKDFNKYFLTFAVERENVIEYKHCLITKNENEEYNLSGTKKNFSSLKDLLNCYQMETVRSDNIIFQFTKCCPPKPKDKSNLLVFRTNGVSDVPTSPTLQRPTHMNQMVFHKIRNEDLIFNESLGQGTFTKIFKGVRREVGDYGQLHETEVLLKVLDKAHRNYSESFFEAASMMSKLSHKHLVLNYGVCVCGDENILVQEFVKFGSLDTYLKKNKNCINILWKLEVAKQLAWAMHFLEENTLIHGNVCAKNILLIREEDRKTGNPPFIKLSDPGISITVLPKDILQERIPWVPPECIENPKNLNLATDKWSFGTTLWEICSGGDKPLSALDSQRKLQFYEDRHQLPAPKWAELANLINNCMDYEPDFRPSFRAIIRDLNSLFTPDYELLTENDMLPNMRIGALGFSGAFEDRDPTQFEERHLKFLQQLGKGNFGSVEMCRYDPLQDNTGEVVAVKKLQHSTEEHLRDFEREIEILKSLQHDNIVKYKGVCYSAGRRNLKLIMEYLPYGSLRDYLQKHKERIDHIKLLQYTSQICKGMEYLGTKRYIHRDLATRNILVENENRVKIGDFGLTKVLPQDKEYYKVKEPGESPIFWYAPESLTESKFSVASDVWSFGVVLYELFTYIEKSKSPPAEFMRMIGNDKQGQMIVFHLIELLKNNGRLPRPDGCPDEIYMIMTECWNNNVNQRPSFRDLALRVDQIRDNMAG

As to `OCCn1cc(Nc2ncc3cnn(Cc4cccc(N5CCOCC5)c4F)c3n2)cn1` [Example 39, 2-(4-((1-(2-Fluoro-3-morpholinobenzyl)-1H-pyrazolo[3,4-d]pyrimidin-6-yl)amino)-1H-pyrazol-1-yl)ethanol], the IC50 is under 100 nM on JAK3 and 1000 to 10000 nM on JAK2.
For the compound `CN1CCN(c2cccc(Cn3ncc4cnc(Nc5cnn(C)c5)nc43)c2)CC1` [Example 10, N-(1-Methyl-1H-pyrazol-4-yl)-1-(3-(4-methylpiperazin-1-yl)benzyl)-1H-pyrazolo[3,4-d]pyrimidin-6-amine], the IC50 on JAK3 is under 100 nM; on JAK2 it was at least 10000 nM.
The matching figures for `N#CCCn1cc(Nc2ncc3cnn(Cc4cc(F)cc(N5CCOCC5=O)c4)c3n2)cn1` [Example 107, 3-(4-((1-(3-fluoro-5-(3-oxomorpholino)benzyl)-1H-pyrazolo[3,4-d]pyrimidin-6-yl)amino)-1H-pyrazol-1-yl)propanenitrile]: under 100 nM and 1000 to 10000 nM.
Turning to `FC(F)Cn1cc(Nc2ncc3cnn(Cc4cccc(N5CCOCC5)c4)c3n2)cn1` [Example 23, N-(1-(2,2-Difluoroethyl)-1H-pyrazol-4-yl)-1-(3-morpholinobenzyl)-1H-pyrazolo[3,4-d]pyrimidin-6-amine], the IC50 on JAK3 was under 100 nM; at JAK2, at least 10000 nM.
For `Cn1cc(Nc2ncc3cnn(Cc4cccc(N5CC6(COC6)C5)c4)c3n2)cn1` [Example 89, 1-(3-(2-oxa-6-azaspiro[3.3]heptan-6-yl)benzyl)-N-(1-methyl-1H-pyrazol-4-yl)-1H-pyrazolo[3,4-d]pyrimidin-6-amine], in that order: under 100 nM and at least 10000 nM.
Regarding `Cn1cc(Nc2ncc3cnn(Cc4cccc(N5CCCCC5)c4)c3n2)cn1` [Example 8, N-(1-Methyl-1H-pyrazol-4-yl)-1-(3-(piperidin-1-yl)benzyl)-1H-pyrazolo[3,4-d]pyrimidin-6-amine], the IC50 is 100 to 1000 nM at JAK3 and at least 10000 nM at JAK2.
`Cn1cc(Nc2ncc3cnn(Cc4cccc(-c5cnn(CC(N)=O)c5)c4)c3n2)cn1` [Example 120, 2-(4-(3-((6-((1-methyl-1H-pyrazol-4-yl)amino)-1H-pyrazolo[3,4-d]pyrimidin-1-yl)methyl)phenyl)-1H-pyrazol-1-yl)acetamide]: the IC50 on JAK3 is under 100 nM; at JAK2 it was 1000 to 10000 nM.
The matching figures for `CC(C)n1cc(-c2cccc(Cn3ncc4cnc(Nc5cnn(C)c5)nc43)c2)cn1` [Example 117, 1-(3-(1-isopropyl-1H-pyrazol-4-yl)benzyl)-N-(1-methyl-1H-pyrazol-4-yl)-1H-pyrazolo[3,4-d]pyrimidin-6-amine]: 100 to 1000 nM and at least 10000 nM.
For the compound `Cn1cc(Nc2ncc3cnn(Cc4cccc(CN5CCOCC5)c4)c3n2)cn1` [Example 7, N-(1-Methyl-1H-pyrazol-4-yl)-1-(3-(morpholinomethyl)benzyl)-1H-pyrazolo[3,4-d]pyrimidin-6-amine], the figures for the IC50 at JAK3 and at JAK2 were under 100 nM and at least 10000 nM, respectively.
For `Cn1cc(Nc2ncc3cnn(Cc4cccc(N5CCC(=O)CC5)c4)c3n2)cn1` [Example 108, 1-(3-((6-((1-methyl-1H-pyrazol-4-yl)amino)-1H-pyrazolo[3,4-d]pyrimidin-1-yl)methyl)phenyl)piperidin-4-one], in that order: under 100 nM and at least 10000 nM.
Regarding `CN(C)CC(O)Cn1cc(Nc2ncc3cnn(Cc4cccc(N5CCOCC5)c4)c3n2)cn1` (centres unmarked) [Example 33, 1-(Dimethylamino)-3-(4-((1-(3-morpholinobenzyl)-1H-pyrazolo[3,4-d]pyrimidin-6-yl)amino)-1H-pyrazol-1-yl)propan-2-ol], the IC50 on JAK3 was under 100 nM; on JAK2 it was at least 10000 nM.
For `C[C@@H]1COCCN1c1cccc(Cn2ncc3cnc(Nc4cnn(C)c4)nc32)c1` [Example 113, (R)-N-(1-methyl-1H-pyrazol-4-yl)-1-(3-(3-methylmorpholino)benzyl)-1H-pyrazolo[3,4-d]pyrimidin-6-amine], in that order: under 100 nM and at least 10000 nM.
Turning to `O=C(CCn1cc(Nc2ncc3cnn(Cc4cccc(N5CCOCC5)c4)c3n2)cn1)N1CCCCC1` [Example 20, 3-(4-((1-(3-Morpholinobenzyl)-1H-pyrazolo[3,4-d]pyrimidin-6-yl)amino)-1H-pyrazol-1-yl)-1-(piperidin-1-yl)propan-1-one], the IC50 on JAK3 is under 100 nM; at JAK2, at least 10000 nM.
Take `O=C(c1cc(F)c(F)c(Cn2ncc3cnc(Nc4cnn(CCO)c4)nc32)c1F)N1CCOCC1` [Example 111, morpholino(2,4,5-trifluoro-3-((6-((1-(2-hydroxyethyl)-1H-pyrazol-4-yl)amino)-1H-pyrazolo[3,4-d]pyrimidin-1-yl)methyl)phenyl)methanone]: the IC50 at JAK3 is under 100 nM; at JAK2, 1000 to 10000 nM.
The matching figures for `Cn1cc(Nc2ncc3cnn(Cc4cccc(C5CCOCC5)c4)c3n2)cn1` [Example 9, N-(1-Methyl-1H-pyrazol-4-yl)-1-(3-(tetrahydro-2H-pyran-4-yl)benzyl)-1H-pyrazolo[3,4-d]pyrimidin-6-amine]: under 100 nM and at least 10000 nM.
For `CNCC1(Cn2cc(Nc3ncc4cnn(Cc5cccc(N6CCOCC6)c5)c4n3)cn2)COC1` [Example 41, N-(1-((3-((Methylamino)methyl)oxetan-3-yl)methyl)-1H-pyrazol-4-yl)-1-(3-morpholinobenzyl)-1H-pyrazolo[3,4-d]pyrimidin-6-amine], in that order: under 100 nM and at least 10000 nM.

Usually IC50 stands for the concentration at which inhibition is half-maximal.
